According to ChEMBL document CHEMBL1121538, “Nucleosides. 116. 1-(beta-D-Xylofuranosyl)-5-fluorocytosines with a leaving group on the 3' position. Potential double-barreled masked precursors of anticancer nucleosides” (1980):
≈ marks a conversion by molar mass, not a printed value.

Assays:
Type in all cases: functional
Details in all cases: read-out: ID50 (the source's name)
[1] = tested on: L5178Y; experiment: The compound was tested for anticancer activity against L5178Y ([…] resistant) cell lines of mouse leukemia
[2] = tested on: L5178Y; experiment: The compound was tested for anticancer activity against L5178Y (sensitive) cell lines of mouse leukemia
[3] = tested on: P815; experiment: The compound was tested for anticancer activity against P815([…] resistant) cell lines of mouse leukemia
[4] = tested on: P815; experiment: The compound was tested for anticancer activity against P815 (sensitive) cell lines of mouse leukemia

SMILES	IC50 [1]	IC50 [2]	IC50 [3]	IC50 [4]
Nc1ccn(C2OC(CO)C(Br)C2O)c(=O)n1 (stereo not drawn)	> 100 µg/mL	0.03 µg/mL (≈ 0.098 µM)	> 100 µg/mL	0.05 µg/mL (≈ 0.163 µM)
Nc1nc(=O)n(C2OC(CO)C(Br)C2O)cc1F (stereo not drawn)	2.6 µg/mL (≈ 8.02 µM)	0.06 µg/mL (≈ 0.185 µM)	5 µg/mL (≈ 15.4 µM)	0.2 µg/mL (≈ 0.617 µM)
Nc1nc(=O)n(C2OC(CO)C(Cl)C2O)cc1F (stereo not drawn)	71 µg/mL (≈ 254 µM)	1 µg/mL (≈ 3.58 µM)	> 30 µg/mL	0.7 µg/mL (≈ 2.5 µM)
Nc1ccn(C2OC(CO)C(Cl)C2O)c(=O)n1 (stereo not drawn)	> 100 µg/mL	2 µg/mL (≈ 7.64 µM)	> 100 µg/mL	0.8 µg/mL (≈ 3.06 µM)
Nc1ccn(C2OC(CO)C(I)C2O)c(=O)n1 (stereo not drawn)	> 100 µg/mL	0.1 µg/mL (≈ 0.283 µM)	> 100 µg/mL	0.3 µg/mL (≈ 0.85 µM)
Nc1ccn([C@@H]2O[C@H](CO)[C@H](F)[C@H]2O)c(=O)n1	> 100 µg/mL	37 µg/mL (≈ 151 µM)	> 100 µg/mL	21 µg/mL (≈ 85.6 µM)
CS(=O)(=O)O[C@@H]1[C@@H](O)[C@H](n2ccc(N)nc2=O)O[C@@H]1CO	> 100 µg/mL	0.07 µg/mL (≈ 0.218 µM)	22 µg/mL (≈ 68.5 µM)	0.03 µg/mL (≈ 0.0934 µM)
Cc1ccc(S(=O)(=O)O[C@@H]2[C@@H](O)[C@H](n3cc(F)c(N)nc3=O)O[C@@H]2CO)cc1	8 µg/mL (≈ 19.3 µM)	0.06 µg/mL (≈ 0.144 µM)	3.9 µg/mL (≈ 9.39 µM)	0.02 µg/mL (≈ 0.0481 µM)
Cc1ccc(S(=O)(=O)O[C@@H]2[C@@H](O)[C@H](n3ccc(N)nc3=O)O[C@@H]2CO)cc1	> 100 µg/mL	0.08 µg/mL (≈ 0.201 µM)	> 30 µg/mL	0.06 µg/mL (≈ 0.151 µM)
CS(=O)(=O)O[C@@H]1[C@@H](O)[C@H](n2cc(F)c(N)nc2=O)O[C@@H]1CO	5.3 µg/mL (≈ 15.6 µM)	0.05 µg/mL (≈ 0.147 µM)	6 µg/mL (≈ 17.7 µM)	0.02 µg/mL (≈ 0.0589 µM)
Nc1nc(=O)n(C2OC(CO)C(I)C2O)cc1F (stereo not drawn)	10 µg/mL (≈ 26.9 µM)	0.08 µg/mL (≈ 0.216 µM)	8 µg/mL (≈ 21.6 µM)	0.1 µg/mL (≈ 0.269 µM)
Nc1ccn([C@@H]2O[C@H](CO)[C@@H](O)[C@@H]2O)c(=O)n1 [CYTARABINE]	79 µg/mL (≈ 325 µM)	20 µg/mL (≈ 82.2 µM)	40 µg/mL (≈ 164 µM)	10 µg/mL (≈ 41.1 µM)
